Measurements reported in patent US20110053933A1, “HYDROXYQUINOXALINECARBOXAMIDE DERIVATIVE” (DAIICHI SANKYO COMPANY, LIMITED, priority 2008, published 2011).

Test system: γ-glutamyl carboxylation reaction (human Gas6 in Gas6-HEK293 cells)
Experiment: Inhibitory action on γ-glutamyl carboxylation reaction (secreted γ-glutamyl carboxylated Gas6 by ELISA)
Type: cell-based
Conditions: vitamin K2 100 nM, exposure 18 to 20 hours, ELISA absorbance at 620 nm, read-out: IC50 (50% inhibitory concentration for the γ-glutamyl carboxylation reaction)
Procedure: Measurement of Inhibitory Action on γ-Glutamyl Carboxylation Reaction
Cells were used that expressed Gas6 excreted outside the cells when subjected to γ-glutamyl carboxylation, and inhibitory action on γ-glutamyl carboxylation reaction was assessed by measuring the secreted amount of extracellular Gas6 by ELISA method.
(A) Preparation for Assay Plate Containing Solid-Phase Anti-Human Gas6 Antibody
Goat anti-human Gas6 antibody (R&D Systems, Inc.) was diluted to 1 μg/ml with Dulbecco's phosphate-buffered saline, and 40 μl aliquots thereof were dispensed into each well of a 384-well microplate. After immobilizing the antibody to the solid phase by allowing it to stand at 4° C. overnight or at room temperature for 2 hours or more, each well was washed three times with wash buffer (10 mM Tris-HCl pH 7.4, 150 mM sodium chloride, 0.05% Tween20). After removing the supernatant, 80 μl aliquots of a 1% aqueous solution of Block Ace (Dainippon Sumitomo Pharma) were dispensed into each well and allowed to react at room temperature for 1 hour or more.
(B) Exposure of Test Compounds to Cells Stably Expressing Human Gas6
Cells that stably express human Gas6 (Gas6-HEK293), which were prepared by inserting human Gas6 gene (inserted between SalI and NotI within multiple cloning sites of pCIneo expression vector) into HEK293 cells, were grown and sub-cultured using Dulbecco's modified Eagle's medium (DMEM) containing 10% fetal calf serum (FCS). On the day before ELISA measurement, the Gas6-HEK293 cells were detached with trypsin-EDTA, dispersed in DMEM containing 10% FCS, and disseminated into each well of a 384-well, collagen type I-coated plate (Becton-Dickinson) in 30 μl aliquots containing 1.0×10^4 cells each, followed by culturing for 3 to 4 hours at 5% CO2 and 37° C. 30 μl aliquots of DMEM containing test compound solutions, prepared at various concentrations by dissolving in DMSO, and vitamin K2 at 0.1% and 100 nM, respectively (indicating final concentrations in both cases) were added to each well followed by additionally culturing for 18 to 20 hours.
(C) Quantification of γ-Glutamyl Carboxylated Gas6 by ELISA and Calculation of 50% Inhibitory Concentrations of γ-Glutamyl Carboxylation Reaction
After removing the 1% Block Ace aqueous solution from the preliminarily prepared assay plates containing solid phase anti-human Gas6 antibody, the culture supernatant of Gas6-HEK293 cells exposed to the test compounds was collected and 40 μl aliquots were dispensed into each well followed by allowing to react at room temperature for 2 hours (Step 1). The culture supernatant was removed and each well was washed three times with wash buffer. Thereafter, the same washing procedure was carried out between Steps 2 and 3 and Steps 3 and 4. Subsequently, 40 μl aliquots of mouse anti-human […] antibody (American Diagnostica inc.), adjusted to 0.5 μg/ml with immunoreaction buffer (100 mM Tris-HCl pH 7.4, 0.05% Tween20, 0.1% Block Ace), were dispensed into each well and allowed to react at room temperature for 1 hour (Step 2). Next, 40 μl aliquots of alkaline phosphatase-conjugated anti-mouse IgG antibody adjusted to 1.0 μg/ml with immunoreaction buffer were dispensed into each well and allowed to react at room temperature for 1 hour (Step 3). 40 μl aliquots of BluePhos Microwell (KPL) were dispensed into each well, and after incubating at room temperature for 10 minutes (Step 4), 20 μl aliquots of 5% EDTA were added to each well to stop the color development reaction, followed by measurement of absorbance at 620 nm (Step 5). […]

SMILES | IC50 [nM]
C[C@H](NC(=O)c1nc2ccccc2nc1O)C(=O)N1CCC(Oc2ccc(F)cn2)CC1 [Example 6, N-[(1S)-2-{4-[(5-Fluoropyridin-2-yl)oxy]piperidin-1-yl}-1-methyl-2-oxoethyl]-3-hydroxyquinoxaline-2-carboxamide] | 74
CC(C)[C@H](NC(=O)c1nc2ccccc2nc1O)C(=O)N1CCC(N(C)c2ccc(F)cc2)CC1 [Example 30, N-[(1S)-1-({4-[(4-Fluorophenyl)(methyl)amino]piperidin-1-yl}carbonyl)-2-methylpropyl]-3-hydroxyquinoxaline-2-carboxamide] | 1.7
O=C(N[C@H](C(=O)N1CCC(Oc2ccc(F)cc2)CC1)C1CC1)c1nc2ccccc2nc1O [Example 13, N-{(1S)-1-Cyclopropyl-2-[4-(4-fluorophenoxy)piperidin-1-yl]-2-oxoethyl}-3-hydroxyquinoxaline-2-carboxamide] | 5.8
CC(C)[C@H](NC(=O)c1nc2ccccc2nc1O)C(=O)N1CCC(Oc2ccc(C#N)cc2)CC1 [Example 19, N-[(1S)-1-{[4-(4-Cyanophenoxy)piperidin-1-yl]carbonyl}-2-methylpropyl]-3-hydroxyquinoxaline-2-carboxamide] | 4.7
CC(C)[C@H](NC(=O)c1nc2ccccc2nc1O)C(=O)N1CCC(Oc2ncc(C(F)(F)F)cn2)CC1 [Example 94, 3-Hydroxy-N-{(1S)-2-methyl-1-[(4-{[5-(trifluoromethyl)pyrimidin-2-yl]oxy}piperidin-1-yl)carbonyl]propyl}quinoxaline-2-carboxamide] | 2.7
CC(C)[C@H](NC(=O)c1nc2ccccc2nc1O)C(=O)N1CCC(Oc2ccc(C(F)(F)F)nn2)CC1 [Example 100, 3-Hydroxy-N-{(1S)-2-methyl-1-[(4-{[6-(trifluoromethyl)pyridazin-3-yl]oxy}piperidin-1-yl)carbonyl]propyl}quinoxaline-2-carboxamide] | 10.4
CC(C)[C@H](NC(=O)c1nc2ccccc2nc1O)C(=O)N1CCC(Oc2ccc(F)cc2F)CC1 [Example 23, N-[(1S)-1-{[4-(2,4-Difluorophenoxy)piperidin-1-yl]carbonyl}-2-methylpropyl]-3-hydroxyquinoxaline-2-carboxamide] | < 0.6
CC(C)[C@H](NC(=O)c1nc2ccccc2nc1O)C(=O)N1CCC(Oc2ccc(F)cn2)CC1 [Example 37, N-[(1S)-1-({4-[(5-Fluoropyridin-2-yl)oxy]piperidin-1-yl}carbonyl)-2-methylpropyl]-3-hydroxyquinoxaline-2-carboxamide] | 5.4
CC(C)[C@H](NC(=O)c1nc2ccccc2nc1O)C(=O)N1CCC(Oc2ccc(F)cc2)CC1 [Example 16, N-[(1S)-1-{[4-(4-Fluorophenoxy)piperidin-1-yl]carbonyl}-2-methylpropyl]-3-hydroxyquinoxaline-2-carboxamide] | 7
C[C@H](NC(=O)c1nc2ccccc2nc1O)C(=O)N1CCC(Oc2ccc(OC(F)(F)F)cc2)CC1 [Example 4, 3-Hydroxy-N-[(1S)-1-methyl-2-oxo-2-{4-[4-(trifluoromethoxy)phenoxy]piperidin-1-yl}ethyl]quinoxaline-2-carboxamide] | 4.7
C[C@H](NC(=O)c1nc2ccccc2nc1O)C(=O)N1CCC(Oc2ccc(F)cc2)CC1 [Example 2, N-{(1S)-2-[4-(4-Fluorophenoxy)piperidin-1-yl]-1-methyl-2-oxoethyl}-3-hydroxyquinoxaline-2-carboxamide] | 6.6
Cc1nc2ccc(OC3CCN(C(=O)[C@@H](NC(=O)c4nc5ccccc5nc4O)C(C)C)CC3)cc2s1 [Example 91, 3-Hydroxy-N-[(1S)-2-methyl-1-({4-[(2-methyl-1,3-benzothiazol-6-yl)oxy]piperidin-1-yl}carbonyl)propyl]quinoxaline-2-carboxamide] | 3.8
CC(C)[C@H](NC(=O)c1nc2ccccc2nc1O)C(=O)N1CCC(Oc2ncc(-c3ccccc3)cn2)CC1 [Example 80, 3-Hydroxy-N-[(1S)-2-methyl-1-({4-[(5-phenylpyrimidin-2-yl)oxy]piperidin-1-yl}carbonyl)propyl]quinoxaline-2-carboxamide] | 7.1
CC(C)[C@H](NC(=O)c1nc2ccccc2nc1O)C(=O)N1CCC(Oc2ncc(Br)cn2)C(C)(C)C1 (stereo partly drawn) [Example 82, N-[(1S)-1-({4-[(5-Bromopyrimidin-2-yl)oxy]-3,3-dimethylpiperidin-1-yl}carbonyl)-2-methylpropyl]-3-hydroxyquinoxaline-2-carboxamide] | 4.6
O=C(N[C@H](C(=O)N1CCC(Oc2ccc(F)cn2)CC1)C1CC1)c1nc2ccccc2nc1O [Example 14, N-[(1S)-1-Cyclopropyl-2-{4-[(5-fluoropyridin-2-yl)oxy]piperidin-1-yl}-2-oxoethyl]-3-hydroxyquinoxaline-2-carboxamide] | 25
CC(C)[C@H](NC(=O)c1nc2ccccc2nc1O)C(=O)N1CCC(Oc2ccc(OC(F)(F)F)cc2)CC1 [Example 18, 3-Hydroxy-N-[(1S)-2-methyl-1-({4-[4-(trifluoromethoxy)phenoxy]piperidin-1-yl}carbonyl)propyl]quinoxaline-2-carboxamide] | 2.9
CC(C)[C@H](NC(=O)c1nc2ccccc2nc1O)C(=O)N1CCC(Oc2ccc(Cl)cn2)CC1 [Example 29, N-[(1S)-1-({4-[(5-Chloropyridin-2-yl)oxy]piperidin-1-yl}carbonyl)-2-methylpropyl]-3-hydroxyquinoxaline-2-carboxamide] | 7.2
CC(C)[C@H](NC(=O)c1nc2ccccc2nc1O)C(=O)N1CCC(C(=O)c2ccc(F)cc2O)CC1 [Example 67, N-[(1S)-1-{[4-(4-Fluoro-2-hydroxybenzoyl)piperidin-1-yl]carbonyl}-2-methylpropyl]-3-hydroxyquinoxaline-2-carboxamide] | 0.75
CC(C)[C@H](NC(=O)c1nc2ccccc2nc1O)C(=O)N1CCC(Oc2cnc(N3CCCCC3)nc2)CC1 [Example 97, 3-Hydroxy-N-[(1S)-2-methyl-1-({4-[(2-piperidin-1-ylpyrimidin-5-yl)oxy]piperidin-1-yl}carbonyl)propyl]quinoxaline-2-carboxamide] | 4.5
CC(C)[C@H](NC(=O)c1nc2ccccc2nc1O)C(=O)N1CCC(Nc2ccc(F)cn2)CC1 [Example 34, N-[(1S)-1-({4-[(5-Fluoropyridin-2-yl)amino]piperidin-1-yl}carbonyl)-2-methylpropyl]-3-hydroxyquinoxaline-2-carboxamide] | 12
CC(C)[C@H](NC(=O)c1nc2ccccc2nc1O)C(=O)N1CCC(C(O)c2ccc(F)cc2F)CC1 (stereo partly drawn) [Example 99, N-[(1S)-1-({4-[(2,4-Difluorophenyl)(hydroxy)methyl]piperidin-1-yl}carbonyl)-2-methylpropyl]-3-hydroxyquinoxaline-2-carboxamide] | 4.9
CC[C@H](NC(=O)c1nc2ccccc2nc1O)C(=O)N1CCC(Oc2ccc(OC(F)(F)F)cc2)CC1 [Example 10, 3-Hydroxy-N-[(1S)-1-({4-[4-(trifluoromethoxy)phenoxy]piperidin-1-yl}carbonyl)propyl]quinoxaline-2-carboxamide] | < 0.6
CC[C@H](NC(=O)c1nc2ccccc2nc1O)C(=O)N1CCC(Oc2ccc(F)cc2)CC1 [Example 8, N-[(1S)-1-{[4-(4-Fluorophenoxy)piperidin-1-yl]carbonyl}propyl]-3-hydroxyquinoxaline-2-carboxamide] | 1.8
